According to patent publication US8552161B2, “Saponin compounds, methods of preparation thereof, use thereof and pharmaceutical compositions” (Uniwersytet W Bialymstoku, priority 2009, dated 2013):

How the values were obtained:
[1] = test system: T-lymphoblastic leukemia cell line CEM; assay: Calcein AM cytotoxicity assay, CEM; format: cell-based; details: Calcein AM assay, 72 h; means ± SD, three independent experiments in triplicate
Protocol: (§1) Stock solutions (10 mmol/l) of the tested compounds were prepared by dissolving relevant quantity of the substance in DMSO. […] Calcein AM was obtained from Molecular Probes (Invitrogen Corporation, CA, USA).
(§2) All cell lines were cultured in DMEM medium (Sigma, Mo., USA). Medium was supplemented with 10% heat-inactivated fetal bovine serum, 2 mmol/l L-glutamine and 1% penicillin-streptomycin. The cell lines were maintained under standard cell culture conditions at 37° C. and 5% CO2 in a humid environment. Cells were subcultured twice or three times a week using the standard trypsinization procedure.
(§3) All cell lines were cultured in DMEM medium (Sigma, Mo., USA) supplemented with 10% fetal calf serum, 2 mM glutamine, 100 U/ml penicillin and 100 μg/ml streptomycin, at 37° C. in a fully humidified atmosphere containing 5% CO2. Suspensions of these lines (ca. 1.0×10^5 cells/ml) were placed in 96-well microtitre plates and after 3 h of stabilization the tested compounds were added in serially diluted concentrations. Saponins were dissolved in dimethylsulfoxide (DMSO) before addition to cultures. Control cultures were treated with DMSO alone. The final concentration of DMSO in the reaction mixtures never exceeded 0.6%. Four-fold dilutions of the intended test concentration were added at time zero in 20 μl aliquots to the microtitre plate wells. Usually, each test compound was evaluated at six 4-fold dilutions and in routine testing; the highest well concentration was 50 μM, although this varied in a few cases, depending on the test compound. After 72 h of culture, the cells were incubated with Calcein AM solution (Molecular Probes) for 1 h. The fluorescence of viable cells was quantified using a Fluoroscan Ascent instrument (Microsystems).

[2] = test system: breast carcinoma cell line MCF7; assay: Calcein AM cytotoxicity assay, MCF7; format: cell-based, human; details: Calcein AM assay, 72 h; means ± SD, three independent experiments in triplicate
Protocol: as §1, §2, §3

[3] = test system: malignant melanoma cell line G-361; assay: Calcein AM cytotoxicity assay, G-361; format: cell-based, human; details: 72 h, means ± SD, three independent experiments in triplicate
Protocol: as §1, §2, §3

[4] = test system: cervical carcinoma cell line HeLa; assay: Calcein AM cytotoxicity assay, HeLa; format: cell-based; details: 72 h, means ± SD, three independent experiments in triplicate
Protocol: as §1, §2, §3

[5] = test system: lung carcinoma cell line A549; assay: Calcein AM cytotoxicity assay, A549; format: cell-based, human; details: 72 h, means ± SD, three independent experiments in triplicate, read-out: IC50, A 549
Protocol: as §1, §2, §3

[6] = test system: normal human fibroblasts BJ; assay: Calcein AM cytotoxicity assay, normal fibroblasts BJ; format: cell-based; details: 72 h, means ± SD, three independent experiments in triplicate
Protocol: as §1, §2, §3

caspase-3/7 in CEM cells = assay: Activity of caspases-3/7 in treated CEM cells (Ac-DEVD-AMC substrate); format: cell-based; details: for activity of caspases-3/7 compared with untreated control: 24 h, 3 (1; 2.5; 5 μM), 6 (0.1; 0.25; 0.5 μM)
Protocol: The CEM cells treated with the novel compounds were harvested by centrifugations and homogenized in an extraction buffer (10 mM KCl, 5 mM HEPES, 1 mM EDTA, 1 mM EGTA, 0.2% CHAPS, inhibitors of proteases, pH 7.4) on ice for 20 min. The homogenates were clarified by centrifugation at 10,000 g for […] at 4° C., the proteins were quantified by the Bradford method and diluted to the same concentration. Lysates were then incubated for 1 h with […] Ac-DEVD-AMC as a substrate (Sigma-Aldrich) in an assay buffer (25 mM PIPES, 2 mM EGTA, 2 mM MgCl2, 5 mM DTT, pH 7.3). For negative controls, the lysates were supplemented with […] Ac-DEVD-CHO as a caspase-3/7 inhibitor (Sigma-Aldrich). The fluorescence of the product was measured using a Fluoroskan Ascent microplate reader (Labsystems) at 346/442 nm (ex/em). Here, we determined the activity of caspase-3/7 in CEM cells exposed to 3, 6 or 7 using a fluorogenic substrate Ac-DEVD-AMC and/or caspase 3/7 inhibitor […]. Cells were treated in a dose-dependent manner with compounds 3 (1; 2.5; 5 μM), 6 (0.1; 0.25; 0.5 μM) and 7 (5; 7.5; 10 μM).

CEM cells = assay: Flow cytometry cell cycle and apoptosis (subG1) analysis; format: cell-based; details: for distribution of CEM cells in cell cycle phases (FIG. 2): increasing concentrations
Protocol: The leukemia cancer CEM cells were trypsinized, seeded in 6 well plates, and immediately incubated with the respective compounds. […] Triton X-100, and 50 μg/ml propidium iodide in PBS. DNA content was assessed with a flow cytometer (Cell Lab Quanta SC—MPL, Beckman Coulter, Calif., USA). In a histogram analysis, distribution of cells into the subG1 (“apoptotic cells”), the G0/G1, S and the G2/M peak was quantified using software MultiCycle AV (Phoenix Flow Systems, CA, USA).

leukemia cells (CEM) = assay: Western blot analysis of apoptosis related proteins; format: cell-based; details: 24 h
Protocol: The cells were seeded in a density 2.2×10^4 cells/cm^2 using culture medium in 100-mm culture dishes. Immediately the cells were treated by novel saponins: 3 (1; 2.5; 5 μM), 6 (0.1; 0.25; 0.5 μM) and 7 (5; 7.5; 10 μM). DMSO was used as a vehicle for controls. After 24 h treatment, the cells were washed three times with cold PBS (10 mM, pH 7.4) and lysed in ice-cold protein extract RIPA buffer (20 mM Tris-HCl, pH 7.4, 5 mM EDTA, 2 mM EGTA, 100 mM NaCl, 2 mM NaF, 0.2% Nonidet P-40, 30 mM PMSF, 1 mM DTT, […] of aprotinin and leupeptin). The lysate was collected into microfuge tube and incubated on ice for 1 h. It was then cleared by centrifugation at 10,000×g for […] at 4° C., and supernatant was collected, aliquoted, and stored at −80° C. Proteins in lysates were quantified by the Bradford method and then diluted with Laemmli electrophoresis buffer. Proteins were then separated on 10% or 12% SDS-polyacrylamide gels, transferred onto nitrocellulose membranes (Bio-Rad Laboratories, CA, USA) and stained with Ponceau S to check equal protein loading. The membranes were blocked with 5% (w/v) non-fat dry milk and 0.1% Tween-20 in PBS for 2 h and probed with the specific primary antibodies overnight. After washing in PBS and PBS with 0.1% Tween-20, the membranes were probed with horseradish peroxidase-conjugated secondary antibodies and visualized with chemiluminescent detection reagent West Pico Supersignal (Thermo Fisher Scientific, Rockford, USA). To confirm equal protein loading, immunodetection was performed with the anti-α-tubulin monoclonal antibody. The experiments were repeated three times. The protein expressions in treated cells were compared to untreated controls.

Row | SMILES | IC50 [1] | IC50 [2] | IC50 [3] | IC50 [4] | IC50 [5] | IC50 [6] | activity of caspases-3/7 compared with untreated control (caspase-3/7 in CEM cells) | caspase-3/7 activity after treatment with higher concentrations (caspase-3/7 in CEM cells) | subG1 phase of the cell cycle (apoptotic cells) (CEM cells; CEM cell line after treatment) | distribution of CEM cells in cell cycle phases (FIG. 2) (CEM cells) | Apoptosis subG1 (CEM cells; CEM, 24 h, 0.5 μM) | Cell cycle distribution G0/G1 (CEM cells; CEM, 24 h, 0.5 μM) | Cell cycle distribution G2/M (CEM cells; CEM, 24 h, 0.5 μM) | Cell cycle distribution S (CEM cells; CEM, 24 h, 0.5 μM) | PARP (Western blot) (leukemia cells (CEM); dose-dependent (FIG. 5)) | caspase-3 (Western blot) (leukemia cells (CEM); dose-dependent (FIG. 5)) | antiapoptotic Bcl-2 protein (leukemia cells (CEM); dose-dependent (FIG. 5)) | expression of tumour suppressor protein p53 (leukemia cells (CEM); dose-dependent (FIG. 5)) | phosphorylation of pRb S780 (leukemia cells (CEM); same concentrations (FIG. 5))
1 | COc1ccc(C(=O)O[C@H]2[C@H](O[C@@H]3[C@@H](OC(C)=O)[C@H](O[C@H]4C[C@H]5[C@@H]6CC=C7C[C@@H](O)CC[C@]7(C)[C@H]6CC[C@]5(C)[C@@]4(O)[C@H](C)COCc4ccccc4)OC[C@@H]3O)OC[C@@H](O)[C@@H]2O)cc1 [Compound 1, (20R)-21-Benzyloxy-20-methylpregn-5-ene-3β,16β,17α-triol 16-O-{2-O-(4-methoxybenzoyl)-β-D-xylopyranosyl-(1→3)-2′-O-acetyl-α-L-arabinopyranoside}] | 20 ± 1 nM | 600 ± 100 nM | 750 ± 80 nM | 200 ± 10 nM | 100 ± 50 nM | 300 ± 40 nM |  |  |  |  |  |  |  |  |  |  |  |  | 
2 | COc1ccc(C(=O)O[C@H]2[C@H](O[C@@H]3[C@@H](OC(C)=O)[C@H](O[C@H]4C[C@H]5[C@@H]6CC=C7C[C@@H](O)CC[C@]7(C)[C@H]6CC[C@]5(C)[C@@]4(O)[C@H](C)COC(=O)c4ccccc4)OC[C@@H]3O)OC[C@@H](O)[C@@H]2O)cc1 [Compound 2, (20R)-21-O-benzoyl-20-methylpregn-5-ene-3β,16β,17α,21-tetraol 16-O-{2-O-(4-methoxybenzoyl)-β-D-xylopyranosyl-(1→3)-2′-O-acetyl-α-L-arabinopyranoside}] | 70 ± 10 nM | 700 ± 100 nM | 1660 ± 900 nM | 240 ± 60 nM | 170 ± 40 nM | 100 ± 20 nM |  |  |  |  |  |  |  |  |  |  |  |  | 
3 | COc1ccc(C(=O)OCC(C)C2(O)C(OC3OCC(O)C(OC4OCC(O)C(O)C4OC(=O)c4ccc(OC)cc4)C3OC(C)=O)CC3C4CC=C5CC(O)CCC5(C)C4CCC32C)cc1 [Compound 3, (20R)-21-O-(4-methoxybenzoyl)-20-methylopregn-5-ene-3β,16β,17α,21-tetraol 16-O-{2-O-(4-methoxybenzoyl)-β-D-xylopyranosyl-(1→3)-2′-O-acetyl-α-L-arabinopyranoside] |  |  |  |  |  |  | twofold enhancement | caspase-3/7 activity decreased | increase in subG1 phase | increased the number of S-phase and G2/M cells with concomitant decrease of G0/G1 cells in dose-dependent manner | 11% | 17% | 26% | 46% | cleavage of PARP | accumulation of caspase-3 |  |  | 
4 | CCCCC(=O)OC[C@@H](C)[C@@]1(O)[C@@H](O[C@@H]2OC[C@H](O)[C@H](O[C@@H]3OC[C@@H](O)[C@H](O)[C@H]3OC(=O)c3ccc(OC)cc3)[C@H]2OC(C)=O)C[C@H]2[C@@H]3CC=C4C[C@@H](O)CC[C@]4(C)[C@H]3CC[C@@]21C [Compound 4, (20R)-21-O-pentanoyl-20-methylpregn-5-ene-3β,16β,17α,21-tetraol 16-O-{2-O-(4-methoxybenzoyl)-β-D-xylopyranosyl-(1→3)-2′-O-acetyl-α-L-arabinopyranoside}] | 60 ± 10 nM | 500 ± 70 nM | 390 ± 60 nM | 170 ± 10 nM | 160 ± 40 nM | 500 ± 60 nM |  |  |  |  |  |  |  |  |  |  |  |  | 
5 | CCCCCCC(=O)OC[C@@H](C)[C@@]1(O)[C@@H](O[C@@H]2OC[C@H](O)[C@H](O[C@@H]3OC[C@@H](O)[C@H](O)[C@H]3OC(=O)c3ccc(OC)cc3)[C@H]2OC(C)=O)C[C@H]2[C@@H]3CC=C4C[C@@H](O)CC[C@]4(C)[C@H]3CC[C@@]21C [Compound 5, (20R)-21-O-Heptanoyl-20-methylpregn-5-ene-3β,16β,17α,21-tetraol 16-O-{2-O-(4-methoxybenzoyl)-β-D-xylopyranosyl-(1-3)-2′-O-acetyl-α-L-arabinopyranoside}] | 10 ± 2 nM | 400 ± 40 nM | 1280 ± 200 nM | 30 ± 2 nM | 20 ± 5 nM | 600 ± 70 nM |  |  |  |  |  |  |  |  |  |  |  |  | 
6 | C=CCCCCCCCCC(=O)OC[C@@H](C)[C@@]1(O)[C@@H](O[C@@H]2OC[C@H](O)[C@H](O[C@@H]3OC[C@@H](O)[C@H](O)[C@H]3OC(=O)c3ccc(OC)cc3)[C@H]2OC(C)=O)C[C@H]2[C@@H]3CC=C4C[C@@H](O)CC[C@]4(C)[C@H]3CC[C@@]21C [Compound 6, (20R)-21-O-(Undec-10-enoyl)-20-methylpregn-5-ene-3β,16β,17α,21-tetraol 16-O-{2-O-(4-methoxybenzoyl)-β-D-xylopyranosyl-(1→3)-O-acetyl-α-L-arabinopyranoside}] |  |  |  |  |  |  | twofold enhancement | caspase-3/7 activity decreased |  | increased the number of S-phase and G2/M cells with concomitant decrease of G0/G1 cells in dose-dependent manner |  |  |  |  | cleavage of PARP | accumulation of caspase-3 | increased | enhanced expression | increase of phosphorylation of pRb S780
